Assay results: US12077503B2, “Substituted cyclic amides and their use as herbicides” (FMC CORPORATION, priority 2015, dated 2024)

Assays:
Format in all cases: in vivo
[1] = system: ivy-leaved morning glory (Ipomoea hederacea); assay: Test G Post-Emergence Protocol; conditions: Ipomoea, post-emergence, 312 h; for pest or weed control at 15.625 g/ha: 15.625 g ai/ha, evaluated after 13 days (100=total damage to plant; 0=no damage to plant), read-out: Morningglory, Ivy-leaved damage rating; for pest or weed control at 62.5 g/ha: 62.5 g ai/ha, read-out: Morningglory, Ivy-leaved damage rating (100=total damage to plant; 0=no damage to plant); for pest or weed control at 62.5 g/ha / pest or weed control at 250 g/ha: evaluated after 13 days; for pest or weed control at 250 g/ha: 250 g ai/ha, read-out: damage to plant, Morningglory, Ivy-leaved (100=total damage to plant; 0=no damage to plant)
Summary of the method: (§1)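 Eight days post-sowing, plants received a spray of test compound (acetone/water 50:50, 0.5% Tween 20) at 15.625, 62.5 or 250 g/ha. Glasshouse regime thereafter: 24/16 °C, 14 h light, 65% humidity. Assessment after 13 days on a 0–100 damage scale.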

[2] = system: giant foxtail (Setaria faberi); assay: Test G Post-Emergence Protocol; conditions: Setaria faberi, post-emergence, 312 h; for pest or weed control at 15.625 g/ha: 15.625 g ai/ha, evaluated after 13 days (100=total damage to plant; 0=no damage to plant), read-out: Foxtail, Giant damage rating; for pest or weed control at 62.5 g/ha: 62.5 g ai/ha, read-out: Foxtail, Giant damage rating (100=total damage to plant; 0=no damage to plant); for pest or weed control at 62.5 g/ha / pest or weed control at 250 g/ha: evaluated after 13 days; for pest or weed control at 250 g/ha: 250 g ai/ha, read-out: damage to plant, Foxtail, Giant (100=total damage to plant; 0=no damage to plant)
Summary of the method: as §1

[3] = system: velvetleaf (Abutilon theophrasti); assay: Test G Post-Emergence Protocol; conditions: Abutilon theophrasti, post-emergence, 312 h; for pest or weed control at 15.625 g/ha: 15.625 g ai/ha, evaluated after 13 days (100=total damage to plant; 0=no damage to plant), read-out: Velvetleaf damage rating; for pest or weed control at 62.5 g/ha: 62.5 g ai/ha, read-out: Velvetleaf damage rating (100=total damage to plant; 0=no damage to plant); for pest or weed control at 62.5 g/ha / pest or weed control at 250 g/ha: evaluated after 13 days; for pest or weed control at 250 g/ha: 250 g ai/ha, read-out: damage to plant, Velvetleaf (100=total damage to plant; 0=no damage to plant)
Summary of the method: as §1

corn (Zea mays) [4] = assay: Test G Post-Emergence Protocol; conditions: Zea mays, post-emergence, 312 h; for plant injury at 15.625 g/ha: 15.625 g ai/ha, evaluated after 13 days (100=total damage to plant; 0=no damage to plant), read-out: Corn damage rating; for plant injury at 62.5 g/ha: 62.5 g ai/ha, read-out: Corn damage rating (100=total damage to plant; 0=no damage to plant); for plant injury at 62.5 g/ha / plant injury at 250 g/ha: evaluated after 13 days; for plant injury at 250 g/ha: 250 g ai/ha, read-out: damage to plant, Corn (100=total damage to plant; 0=no damage to plant)
Summary of the method: as §1

[5] = system: barnyardgrass (Echinochloa crus-galli); assay: Test G Post-Emergence Protocol; conditions: Echinochloa crus-galli, post-emergence, 312 h; for pest or weed control at 15.625 g/ha: 15.625 g ai/ha, evaluated after 13 days (100=total damage to plant; 0=no damage to plant), read-out: Barnyardgrass damage rating; for pest or weed control at 62.5 g/ha: 62.5 g ai/ha, read-out: Barnyardgrass damage rating (100=total damage to plant; 0=no damage to plant); for pest or weed control at 62.5 g/ha / pest or weed control at 250 g/ha: evaluated after 13 days; for pest or weed control at 250 g/ha: 250 g ai/ha, read-out: damage to plant, Barnyardgrass (100=total damage to plant; 0=no damage to plant)
Summary of the method: as §1

[6] = system: redroot pigweed (Amaranthus retroflexus); assay: Test G Post-Emergence Protocol; conditions: Amaranthus retroflexus, post-emergence, 312 h; for pest or weed control at 15.625 g/ha: 15.625 g ai/ha, evaluated after 13 days (100=total damage to plant; 0=no damage to plant), read-out: Pigweed, Redroot damage rating; for pest or weed control at 62.5 g/ha: 62.5 g ai/ha, read-out: Pigweed, Redroot damage rating (100=total damage to plant; 0=no damage to plant); for pest or weed control at 62.5 g/ha / pest or weed control at 250 g/ha: evaluated after 13 days; for pest or weed control at 250 g/ha: 250 g ai/ha, read-out: damage to plant, Pigweed, Redroot (100=total damage to plant; 0=no damage to plant)
Summary of the method: as §1

[7] = system: ivy-leaved morning glory (Ipomoea hederacea); assay: Test G Pre-Emergence Protocol; conditions: Ipomoea, pre-emergence, 312 h, evaluated after 13 days; for pest or weed control at 15.625 g/ha: 15.625 g ai/ha, read-out: Morning-glory, Ivy-leaved damage rating (100=total damage to plant; 0=no damage to plant); for pest or weed control at 62.5 g/ha: 62.5 g ai/ha, 100=total damage to plant, 0=no damage to plant, read-out: plant damage rating, Morningglory, Ivy-leaved; for pest or weed control at 250 g/ha: 250 g ai/ha, read-out: Morningglory, Ivy-leaved damage rating (100=total damage to plant; 0=no damage to plant)
Summary of the method: (§2)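 Glasshouse pre-emergence test: soil-sown seeds, sprayed after 1 d at 15.625, 62.5 or 250 g/ha. Conditions 24/16° C day/night, 14 h light, 65% humidity, watering twice daily. Rating 13 d post-spray (100 = total damage).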

[8] = system: giant foxtail (Setaria faberi); assay: Test G Pre-Emergence Protocol; conditions: Setaria faberi, pre-emergence, 312 h, evaluated after 13 days; for pest or weed control at 15.625 g/ha: 15.625 g ai/ha; for pest or weed control at 15.625 g/ha / pest or weed control at 250 g/ha: read-out: Foxtail, Giant damage rating (100=total damage to plant; 0=no damage to plant); for pest or weed control at 62.5 g/ha: 62.5 g ai/ha, 100=total damage to plant, 0=no damage to plant, read-out: plant damage rating, Foxtail, Giant; for pest or weed control at 250 g/ha: 250 g ai/ha
Summary of the method: as §2

[9] = system: velvetleaf (Abutilon theophrasti); assay: Test G Pre-Emergence Protocol; conditions: Abutilon theophrasti, pre-emergence, 312 h, evaluated after 13 days; for pest or weed control at 15.625 g/ha: 15.625 g ai/ha; for pest or weed control at 15.625 g/ha / pest or weed control at 250 g/ha: read-out: Velvetleaf damage rating (100=total damage to plant; 0=no damage to plant); for pest or weed control at 62.5 g/ha: 62.5 g ai/ha, 100=total damage to plant, 0=no damage to plant, read-out: plant damage rating, Velvetleaf; for pest or weed control at 250 g/ha: 250 g ai/ha
Summary of the method: as §2

corn (Zea mays) [10] = assay: Test G Pre-Emergence Protocol; conditions: Zea mays, pre-emergence, 312 h, evaluated after 13 days; for plant injury at 15.625 g/ha: 15.625 g ai/ha; for plant injury at 15.625 g/ha / plant injury at 250 g/ha: read-out: Corn damage rating (100=total damage to plant; 0=no damage to plant); for plant injury at 62.5 g/ha: 62.5 g ai/ha, 100=total damage to plant, 0=no damage to plant, read-out: plant damage rating, Corn; for plant injury at 250 g/ha: 250 g ai/ha
Summary of the method: as §2

[11] = system: barnyardgrass (Echinochloa crus-galli); assay: Test G Pre-Emergence Protocol; conditions: Echinochloa crus-galli, pre-emergence, 312 h, evaluated after 13 days; for pest or weed control at 15.625 g/ha: 15.625 g ai/ha, read-out: Barnyard grass damage rating (100=total damage to plant; 0=no damage to plant); for pest or weed control at 62.5 g/ha: 62.5 g ai/ha, 100=total damage to plant, 0=no damage to plant, read-out: plant damage rating, Barnyardgrass; for pest or weed control at 250 g/ha: 250 g ai/ha, read-out: Barnyardgrass damage rating (100=total damage to plant; 0=no damage to plant)
Summary of the method: as §2

[12] = system: redroot pigweed (Amaranthus retroflexus); assay: Test G Pre-Emergence Protocol; conditions: Amaranthus retroflexus, pre-emergence, 312 h, evaluated after 13 days; for pest or weed control at 15.625 g/ha: 15.625 g ai/ha; for pest or weed control at 15.625 g/ha / pest or weed control at 250 g/ha: read-out: Pigweed, Redroot damage rating (100=total damage to plant; 0=no damage to plant); for pest or weed control at 62.5 g/ha: 62.5 g ai/ha, 100=total damage to plant, 0=no damage to plant, read-out: plant damage rating, Pigweed, Redroot; for pest or weed control at 250 g/ha: 250 g ai/ha
Summary of the method: as §2

Row | Structure (SMILES) | pest or weed control at 15.625 g/ha [1] | pest or weed control at 62.5 g/ha [1] | pest or weed control at 250 g/ha [1] | pest or weed control at 15.625 g/ha [2] | pest or weed control at 62.5 g/ha [2] | pest or weed control at 250 g/ha [2] | pest or weed control at 15.625 g/ha [3] | pest or weed control at 62.5 g/ha [3] | pest or weed control at 250 g/ha [3] | plant injury at 15.625 g/ha (corn (Zea mays) [4]) | plant injury at 62.5 g/ha (corn (Zea mays) [4]) | plant injury at 250 g/ha (corn (Zea mays) [4]) | pest or weed control at 15.625 g/ha [5] | pest or weed control at 62.5 g/ha [5] | pest or weed control at 250 g/ha [5] | pest or weed control at 15.625 g/ha [6] | pest or weed control at 62.5 g/ha [6] | pest or weed control at 250 g/ha [6] | pest or weed control at 15.625 g/ha [7] | pest or weed control at 62.5 g/ha [7] | other results
1 | CN1C[C@@H](c2cncc(Cl)c2)[C@H](C(=O)Nc2cccc(F)c2F)C1=O (racemic) [Compound 1461] | 0% | 0% | 0% | 20% | 70% | 70% | 0% | 0% | 0% | 10% | 0% | 0% | 0% | 30% | 50% | 0% | 0% | 0% | 0% | 0% | pest or weed control at 250 g/ha [7]: 0%; pest or weed control at 15.625 g/ha [8]: 30%; pest or weed control at 62.5 g/ha [8]: 80%; pest or weed control at 250 g/ha [8]: 90%; pest or weed control at 15.625 g/ha [9]: 0%; pest or weed control at 62.5 g/ha [9]: 0%; pest or weed control at 250 g/ha [9]: 0%; plant injury at 15.625 g/ha (corn (Zea mays) [10]): 0%; plant injury at 62.5 g/ha (corn (Zea mays) [10]): 0%; plant injury at 250 g/ha (corn (Zea mays) [10]): 0%; pest or weed control at 15.625 g/ha [11]: 0%; pest or weed control at 62.5 g/ha [11]: 60%; pest or weed control at 250 g/ha [11]: 90%; pest or weed control at 15.625 g/ha [12]: 0%; pest or weed control at 62.5 g/ha [12]: 0%; pest or weed control at 250 g/ha [12]: 0%
2 | CN1C[C@H](c2cccc3c2OC(F)(F)O3)[C@@H](C(=O)Nc2ccccc2F)C1=O (racemic) [Compound 1465] | 0% | 0% | 20% | 0% | 60% | 70% | 10% | 0% | 10% | 10% | 10% | 10% | 0% | 10% | 20% | 10% | 0% | 0% | 0% | 0% | pest or weed control at 250 g/ha [7]: 0%; pest or weed control at 15.625 g/ha [8]: 30%; pest or weed control at 62.5 g/ha [8]: 70%; pest or weed control at 250 g/ha [8]: 90%; pest or weed control at 15.625 g/ha [9]: 0%; pest or weed control at 62.5 g/ha [9]: 0%; pest or weed control at 250 g/ha [9]: 0%; plant injury at 15.625 g/ha (corn (Zea mays) [10]): 0%; plant injury at 62.5 g/ha (corn (Zea mays) [10]): 0%; plant injury at 250 g/ha (corn (Zea mays) [10]): 0%; pest or weed control at 15.625 g/ha [11]: 0%; pest or weed control at 62.5 g/ha [11]: 20%; pest or weed control at 250 g/ha [11]: 70%; pest or weed control at 15.625 g/ha [12]: 0%; pest or weed control at 62.5 g/ha [12]: 0%; pest or weed control at 250 g/ha [12]: 0%
